Six compounds from ChEMBL document CHEMBL3044575, “Synthesis, anti-inflammatory activity, and QSAR study of some Schiff bases derived from 5-mercapto-3-(4-pyridyl)-4H-1,2,4-triazol-4-yl-thiosemicarbazide” (2013) can be followed below.

Assay type in all cases: functional
Assay [1] has as its system Rattus norvegicus. Description: Anti-inflammatory activity in Albino Rattus norvegicus (rat) assessed as inhibition of carrageenan-induced paw edema at 10 mg/kg, po administered 1 hr prior to carrageenan challenge measured after 2 hr by mercury displacement technique. In general terms: In the carrageenan paw model, swelling and tenderness develop within hours.
The test system of assay [2] is Rattus norvegicus. Description: Anti-inflammatory activity in Albino Rattus norvegicus (rat) assessed as inhibition of carrageenan-induced paw edema at 10 mg/kg, po administered 1 hr prior to carrageenan challenge measured after 5 hr by mercury displacement technique.
Assay [3] deals with Rattus norvegicus. Description: Anti-inflammatory activity in Albino Rattus norvegicus (rat) assessed as inhibition of carrageenan-induced paw edema at 10 mg/kg, po administered 1 hr prior to carrageenan challenge measured after 1 hr by mercury displacement technique.
Assay [4] deals with Rattus norvegicus. Put plainly: Anti-inflammatory activity in Albino Rattus norvegicus (rat) assessed as inhibition of carrageenan-induced paw edema at 20 mg/kg, po administered 1 hr prior to carrageenan challenge measured after 2 hr by mercury displacement technique.
The subject of assay [5] is Rattus norvegicus. Put plainly: Anti-inflammatory activity in Albino Rattus norvegicus (rat) assessed as inhibition of carrageenan-induced paw edema at 20 mg/kg, po administered 1 hr prior to carrageenan challenge measured after 5 hr by mercury displacement technique.
Assay [6] has as its system Rattus norvegicus. Description: Anti-inflammatory activity in Albino Rattus norvegicus (rat) assessed as inhibition of carrageenan-induced paw edema at 20 mg/kg, po administered 1 hr prior to carrageenan challenge measured after 1 hr by mercury displacement technique.

By inhibition in vivo is commonly meant the drop in the measured response relative to a control, in per cent. On to `COc1ccc2c(c1)c(CC(=O)O)c(C)n2C(=O)c1ccc(Cl)cc1` [INDOMETHACIN], for which the results for the inhibition in vivo at 10 mg/kg in assay [1], in assay [2] and in assay [3] were 73%, 84% and 52%, respectively.

In the case of `O=[N+]([O-])c1ccc(/C=N/NC(=S)Nn2c(S)nnc2-c2ccncc2)cc1`, the results for the inhibition in vivo at 20 mg/kg in assay [4], in assay [5] and in assay [6] were 34.5%, 41.5% and 14.3%, respectively.

Regarding `COc1cc(/C=N/NC(=S)Nn2c(S)nnc2-c2ccncc2)cc(OC)c1OC`, the inhibition in vivo at 20 mg/kg in assay [4] turned out to be 52.9%; in assay [5], 61.4%; in assay [6], 36.2%.

`S=C(N/N=C/c1ccccc1Cl)Nn1c(S)nnc1-c1ccncc1`: the results for the inhibition in vivo at 20 mg/kg in assay [4], in assay [5] and in assay [6] were 62.5%, 67.3% and 39.1%, respectively.

Turning to `COc1ccc(/C=N/NC(=S)Nn2c(S)nnc2-c2ccncc2)cc1O`, the inhibition in vivo at 20 mg/kg in assay [4] was 44.4%; in assay [5], 48.4%; in assay [6], 28%.

Regarding `S=C(N/N=C/c1ccc(Cl)cc1)Nn1c(S)nnc1-c1ccncc1`, the inhibition in vivo at 20 mg/kg worked out at 69.6% in assay [4], 76.9% in assay [5] and 45.5% in assay [6].
